{
  "source": "patent US20050038022A1",
  "about": "“Method for treatment of cancer and compositions for use therein” (Unisearch Limited, priority 2001, published 2005)",
  "key": {"[1]": {"tested_on": "Novikoff", "experiment": "[3H]thymidine incorporation assay, Novikoff", "type": "cell-based, rat", "conditions": "5 days", "experimental": "(§1) HepG2, Hep3-B, Hep1-6, SKHEP-1, PLC/PRF/5, and HTC cells were obtained from European Collection of Cell Cultures (ECACC; U.K), Novikoff was obtained from Cancer Research Centre (DKFZ) Heidelberg, Germany. Cells were cultured in MEM or DMEM supplemented with 10% FBS, 50 units/ml penicillin, 50 units/ml streptomycin, 25 μg/ml amphotericin B (Gibco, Grand Island, N.Y.) and maintained subconfluent at 37° C. in humidified incubators containing 5% CO2. Albendazole (Sigma, Australian subsidiary) was dissolved in absolute ethanol at concentrations that were 1000-fold higher than the final medium concentration."}, "[2]": {"conditions": "at all times after a 400 mg oral dose; cited from earlier work"}, "[3]": {"tested_on": "liver, colorectal, prostate and leukeamic cell lines", "experiment": "Albendazole/ABS side by side in various cell lines (general)", "type": "cell-based", "conditions": "5 days", "experimental": "(§2) In order to be able to test ABS, a proper solvent had to be found. […] Therefore to allow direct comparison between the 2 compounds, all subsequent experiments were run using 0.5% DMSO for both ABS and albendazole. In the cell lines examined, albendazole produced very similar results to what we had previously reported for the drug in liver cancer cells.\n(§3) Both albendazole and ABS were tested side by side against various cell lines as follows: • Liver—HepGZ Hep3B, SKHEP-1 • Colorectal—170, LOVO, HT-29 • Prostate—PC3, LNCap, Du145 • Leukeamic—HL60\nThe fist 9 cell lines were used to compare effectiveness and potency while, the last one was used to assess toxicity on bone marrow (as a rough guide).\n(§4) Cells were treated with various concentrations of each compound for a period of 5 days."}, "[4]": {"tested_on": "HTC", "experiment": "[3H]thymidine incorporation assay, HTC", "type": "cell-based, rat", "conditions": "5 days", "experimental": "as §1"}, "[5]": {"tested_on": "NIH:OVCAR-3", "experiment": "Cell count, ovarian cancer cell line", "type": "cell-based, human", "conditions": "OVCAR-3, 0.1 and 1 micromoles/L, evident from day 1", "experimental": "Cells were treated with either the medium alone (control) or 0.1 and 1 micromoles/L of albendazole for 0, 1, 3, 6 or 10 days and the number of viable cells counted. […] This was evident from day 1 after the treatment"}, "[6]": {"tested_on": "PC3, LNCap and Du 145", "experiment": "Albendazole/ABS proliferation test, prostate cancer cells", "type": "cell-based, human", "conditions": "3 human prostate cell lines", "experimental": "as §2, §3, §4"}, "[7]": {"tested_on": "NIH:OVCAR-3", "experiment": "Thymidine assay, ovarian cancer cell line", "type": "cell-based, human", "experimental": "To study the feasibility of using albendazole in the treatment of peritoneal disease, the human ovarian cancer cell line NIH:OVCAR-3 was selected. This is a cell line that grows quite slowly but is tumorogenic in nude mice therefore allowing for the drug to be studied under both in-vitro and in-vivo conditions.\nAfter finding the right conditions for the growth of cells in culture, cells were treated for 5 days with various concentrations of albendazole."}, "[8]": {"tested_on": "SKHEP-1 subcutaneous tumor", "experiment": "Tumor formation in nude mice", "type": "in vivo, BALB/c Nu/Nu mice", "conditions": "for maximum proliferation index (MPI), Ki-67: mean±s.e.m.", "experimental": "6 to 10 weeks old male BALB/c Nu/Nu mice (Animal Resources Center, Perth, Australia) were inoculated subcutaneously with 10^6 SKHEP-1 cells into the right flank. 24 hours after inoculation animals were randomly assigned to one of the treatment groups (n=10 per group), receiving 25, 50 or 150 mg/kg twice daily oral albendazole suspended in sesame oil for 20 days.\nThe control group was treated with the vehicle (sesame oil). Using vernier calipers, tumor diameter (mm) was measured on day eight and then every three days up to day 20-post tumor cell inoculation. Tumor volumes were calculated using the formula: ab^2/2 where a and b are the […] diameters in millimeters, respectively and a piece of the tumor was preserved in paraffin for immunohistochemical determination of maximum proliferation index (MPI). Here, after fixation, the specimen was processed for the detection of Ki-67 antigen with the monoclonal antibody MIB1 according to the method described by McCormick.\nThe animal model was chosen on the basis of SKHEP-1 being the most tumorigenic human liver cancer cell line in nude mice and previous experience with the model."}, "[9]": {"tested_on": "LOVO cells", "experiment": "DNA laddering (apoptosis), LOVO", "type": "cell-based, human", "conditions": "1 μM, 16 hours", "from_the_text": "Similar results were also obtained with the human colorectal cell line LOVO."}, "[10]": {"tested_on": "Hep1-6", "experiment": "[3H]thymidine incorporation assay, Hep1-6", "type": "cell-based, mice", "conditions": "5 days", "experimental": "as §1"}, "[11]": {"tested_on": "SKHEP-1 cells", "experiment": "Cell counts (trypan blue exclusion)", "type": "cell-based, human", "experimental": "SKHEP-1 cells (2.5×10^4) were plated in six well plates. The cell treatment procedure was as described for the thymidine assay. At the end of the treatment period (1, 3 or 5 days), cells were trypsinized and counted with a hemocytometer using the trypan blue exclusion method. In all experiments, cells treated with the medium containing 0.1% ethanol were taken as the control for albendazole treated cells. All counts were obtained in quadruplicate and each experiment was repeated at least twice."}, "[12]": {"tested_on": "SKHEP-1 cells", "experiment": "Cell cycle analysis by flow cytometry", "type": "cell-based, human", "conditions": "3 days (FIG. 3)", "experimental": "SKHEP-1 cells (5×10^4) were plated onto six-well tissue culture plates. Triplicate samples were treated with the indicated concentrations of albendazole (100, 250 and 1000 nM). The medium was changed everyday. After 72 h the relevant group of cells were collected, washed twice with phosphate buffer and treated with ribonuclease, Triton X-100 and propidium iodide (Sigma) based on the method described by Taylor [12]. The percentage of cells within the G1, S, and G2-M phases of the cell cycle were determined using a FACScan flow cytometer (Becton Dickinson FACSort) and Multifit LT cell cycle analysis software (Verity Software INC.)"}, "[13]": {"tested_on": "SKHEP-1", "experiment": "[3H]thymidine incorporation assay, SKHEP-1", "type": "cell-based, human", "experimental": "as §1"}},
  "data": [
    {"compound": "CCCSc1ccc2nc(NC(=O)OC)[nH]c2c1", "note": "[albendazole, methyl 5-propylthio-1H-benzimidazole-2-yl carbamate]", "values": [
      {"measurement": "[3H]thymidine incorporation", "setting": "[1]; albendazole 10 nM", "value": "96.5 ± 8.8", "unit": "% control"},
      {"measurement": "[3H]thymidine incorporation", "setting": "[1]; albendazole 100 nM", "value": "71.6 ± 5.9", "unit": "% control"},
      {"measurement": "[3H]thymidine incorporation", "setting": "[1]; albendazole 500 nM", "value": "29.2 ± 3.3", "unit": "% control"},
      {"measurement": "[3H]thymidine incorporation", "setting": "[1]; albendazole 1000 nM", "value": "10.3 ± 1.8", "unit": "% control"},
      {"measurement": "concentration of the unchanged drug", "setting": "[2]", "value": "below the detection limits"},
      {"measurement": "antiproliferative activity at 0.25 micromoles/L", "setting": "[3]; 0.25 micromoles/L", "value": "dramatically increasing"},
      {"measurement": "inhibition at 1 µM", "setting": "[3]; 120 h, 1 micromoles/L", "value": "~100", "unit": "%"},
      {"measurement": "concentration at which antiproliferative activity becomes evident", "setting": "[3]; 0.5% DMSO, in general", "value": 0.01, "unit": "µmol/L"},
      {"measurement": "[3H]thymidine incorporation", "setting": "[4]; albendazole 10 nM", "value": "98.4 ± 7.5", "unit": "% control"},
      {"measurement": "[3H]thymidine incorporation", "setting": "[4]; albendazole 100 nM", "value": "86.0 ± 6.9", "unit": "% control"},
      {"measurement": "[3H]thymidine incorporation", "setting": "[4]; albendazole 500 nM", "value": "28.5 ± 2.2", "unit": "% control"},
      {"measurement": "[3H]thymidine incorporation", "setting": "[4]; albendazole 1000 nM", "value": "11.4 ± 1.3", "unit": "% control"},
      {"measurement": "number of viable cells", "setting": "[5]", "value": "profound reduction in cell number"},
      {"measurement": "sensitivity of prostate cell lines in culture", "setting": "[6]", "value": "quite sensitive"},
      {"measurement": "inhibition at 0.25 µM", "setting": "[7]; Homo sapiens, 120 h, OVCAR-3, 0.25 micromoles/L, 5 days", "value": "~90", "unit": "%"},
      {"measurement": "inhibition at 0.5 µM", "setting": "[7]; Homo sapiens, 120 h, OVCAR-3, 0.5 micromoles/L, 5 days, read-out: inhibition of cell growth", "value": 100, "unit": "%"},
      {"measurement": "lowest concentration with an effect on cell proliferation", "setting": "[7]; OVCAR-3, 5 days", "value": 0.001, "unit": "µmol/L"},
      {"measurement": "inhibition of proliferation (3H-thymidine uptake)", "setting": "[7]; OVCAR-3 in vitro (FIG. 5)", "value": "dose dependent inhibition of proliferation"},
      {"measurement": "degree of activity relative to liver or colorectal cancer cells", "setting": "[7]; OVCAR-3 versus liver or colorectal cancer cells, fold", "value": "~10"},
      {"measurement": "maximum proliferation index (MPI), Ki-67", "setting": "[8]; 50 mg/kg dose", "value": "22.54±1.53"},
      {"measurement": "maximum proliferation index (MPI), Ki-67", "setting": "[8]; 150 mg/kg dose", "value": "13.36±3.04"},
      {"measurement": "mean tumor volume", "setting": "[8]; 300 mg/kg dose oral in sesame oil, 20 days post inoculation, p<0.001", "value": "12.0±7.8", "unit": "mm^3"},
      {"measurement": "tumor growth", "setting": "[8]; 50 and 150 mg/kg per day oral", "value": "slightly but not significantly retarded"},
      {"measurement": "DNA laddering (apoptosis)", "setting": "[9]", "value": "clear laddering"},
      {"measurement": "[3H]thymidine incorporation", "setting": "[10]; Hep1-6, albendazole 10 nM", "value": "97.7 ± 4.3", "unit": "% control"},
      {"measurement": "[3H]thymidine incorporation", "setting": "[10]; Hep1-6, albendazole 100 nM", "value": "79.5 ± 3.2", "unit": "% control"},
      {"measurement": "[3H]thymidine incorporation", "setting": "[10]; Hep1-6, albendazole 500 nM", "value": "28.1 ± 2.5", "unit": "% control"},
      {"measurement": "[3H]thymidine incorporation", "setting": "[10]; Hep1-6, albendazole 1000 nM", "value": "5.6 ± 0.6", "unit": "% control"},
      {"measurement": "number of viable cells compared to control", "setting": "[11]; SKHEP-1, 1000 nM, p<0.001", "value": "significantly reduced in number"},
      {"measurement": "number of viable cells", "setting": "[11]; SKHEP-1, 1, 3 or 5 days, 100, 500 or 1000 nM (FIG. 2)", "value": "dose dependent decline in the number of cells"},
      {"measurement": "effect on cell cycle distribution", "setting": "[12]; SKHEP-1, 250 nM", "value": "accumulation of cells in the G0-G1 phase"},
      {"measurement": "effect on cell cycle distribution", "setting": "[12]; SKHEP-1, 1000 nM", "value": "arrest and accumulation of cells in the G2-M phase"},
      {"measurement": "inhibition at 1 µM", "setting": "[13]; Homo sapiens, SK-HEP1, 120 h, SKHEP-1, 1000 nM albendazole, 5 days", "value": 99.4, "unit": "%"},
      {"measurement": "thymidine incorporation after 1 day exposure", "setting": "[13]; SKHEP-1, 1 day, concentrations of 250 nM and over (FIG. 1a)", "value": "profound inhibition of thymidine incorporation"},
      {"measurement": "[3H]thymidine incorporation", "setting": "[13]; SKHEP-1, albendazole 10 nM, 5 days", "value": "89.6 ± 6.1", "unit": "% control"},
      {"measurement": "[3H]thymidine incorporation", "setting": "[13]; SKHEP-1, albendazole 100 nM, 5 days", "value": "63.7 ± 3.1", "unit": "% control"},
      {"measurement": "[3H]thymidine incorporation", "setting": "[13]; SKHEP-1, albendazole 500 nM, 5 days", "value": "4.5 ± 1.1", "unit": "% control"}
    ]}
  ]
}
